We go through six molecules from patent publication US9232796B2, “Herbicidal compositions comprising 4-amino-3-chloro-5-fluoro-6-(4-chloro-2-fluoro-3-methoxyphenyl) pyridine-2-carboxylic acid or a derivative thereof and acetyl-CoA carboxylase (ACCase) inhibitors” (DOW AGROSCIENCES LLC, priority 2012, dated 2016).

“And” between values parts separate entries of the source, which are not always exact repeats. Equal values may be shown once.

In assay [1] the test system is ECHOR. As to the kind of experiment: Example II in-water applied, greenhouse, transplanted paddy rice weeds. It is filed as in vivo, Echinochloa oryzoides (Ard.) Fritsch. The procedure:
(§1) Weed seeds or nutlets of the desired test plant species were planted in puddled soil (mud) prepared by mixing a shredded, non-sterilized mineral soil (50.5 percent silt, 25.5 percent clay, and 24 percent sand, with a pH of about 7.6 and an organic matter content of about 2.9 percent) and water at a 1:1 volumetric ratio. The prepared mud was dispensed in 365 mL aliquots into 16-ounce (oz.) non-perforated plastic pots with a surface area of 86.59 square centimeters (cm^2) leaving a headspace of 3 centimeters (cm) in each pot. Mud was allowed to dry overnight prior to planting or transplanting. Rice seeds were planted in Sun Gro MetroMix® 306 planting mixture, which typically has a pH of 6.0 to 6.8 and an organic matter content of about 30 percent, in plastic plug trays. Seedlings at the second or third leaf stage of growth were transplanted into 860 mL of mud contained in 32-oz. non-perforated plastic pots with a surface area of 86.59 cm^2 4 days prior to herbicide application. The paddy was created by filling the headspace of the pots with 2.5 to 3 cm of water. […] The plants were grown for 4-22 days in a greenhouse with an approximate 14 hr. photoperiod which was maintained at about 29° C. during the day and 26° C. during the night. Nutrients were added as Osmocote® (19:6:12, N:P:K+minor nutrients) at 2 g per 16-oz. pot and 4 g per 32-oz. pot. Water was added on a regular basis to maintain the paddy flood, and supplemental lighting was provided with overhead metal halide 1000-Watt lamps as necessary. The plants were employed for testing when they reached the first through fourth true leaf stage.
(§2) Treatments consisted of the acid or esters of 4-amino-3-chloro-5-fluoro-6-(4-chloro-2-fluoro-3-methoxy-phenyl)pyridine-2-carboxylic acid (compound A) each formulated as an SC (suspension concentrate) and various herbicidal components alone and in combination.
(§3) For formulated compounds, a measured amount was placed in an individual 100 or 200 mL glass vial and was dissolved in a volume of 1.25% (v/v) Agri-Dex® crop oil concentrate to obtain application solutions.
(§4) Applications were made by injecting with a pipetter appropriate amounts of the application solutions, individually and sequentially, into the aqueous layer of the paddy. Control plants were treated in the same manner with the solvent blank. Applications were made so that all treated plant material received the same concentrations of acetone and crop oil concentrate.
(§5) The treated plants and control plants were placed in a greenhouse as described above and water was added as needed to maintain a paddy flood. After approximately 3 weeks the condition of the test plants as compared with that of the untreated plants was determined visually and scored on a scale of 0 to 100 percent where 0 corresponds to no injury or growth inhibition and 100 corresponds to complete kill.
(§6) Colby's equation was used to determine the herbicidal effects expected from the mixtures (Colby, S. R. 1967. Calculation of the synergistic and antagonistic response of herbicide combinations. Weeds 15:20-22.).
(§7) The following equation was used to calculate the expected activity of mixtures containing two active ingredients, A and B: Expected=A+B−(A×B/100)

Assay [2] has as its system CYPRO. The description is as above. It is filed as in vivo, Cyperus rotundus L. The procedure:
as §1, §2, §3, §4, §5, §6, §7

Assay [3] concerns ECHOR. Description: Example V (second) postemergence foliar-applied ternary mixtures, greenhouse, direct seeded rice weeds. It is filed as in vivo, Echinochloa oryzoides (Ard.) Fritsch. The procedure:
Seeds or nutlets of the desired test plant species were planted in a soil matrix prepared by mixing a sandy loam or loam soil (e.g., 32 percent silt, 23 percent clay, and 45 percent sand, with a pH of about 6.5 and an organic matter content of about 1.9 percent) and calcareous grit in an 80 to 20 ratio. The soil matrix was contained in plastic pots with a volume of 1 quart and a surface area of 83.6 square centimeters (cm^2). […] The plants were grown for 8-22 days in a greenhouse with an approximate 14 hr. photoperiod which was maintained at about 29° C. during the day and 26° C. during the night. Nutrients (Peters Excel® 15-5-15 5-Ca 2-Mg and iron chelate) were applied in the irrigation solution as needed and water was added on a regular basis. Supplemental lighting was provided with overhead metal halide 1000-Watt lamps as necessary. The plants were employed for testing when they reached the first through fourth true leaf stage.
Treatments consisted of the benzyl ester of 4-amino-3-chloro-5-fluoro-6-(4-chloro-2-fluoro-3-methoxy-phenyl)pyridine-2-carboxylic acid (Compound A), formulated as an SC (suspension concentrate), an ACCase inhibitor, and a third herbicidal component, each applied alone and in ternary combination. Forms of compound A were applied on an acid equivalent basis.
For treatments comprised of formulated compounds, measured amounts of compounds were placed individually in 25 mL glass vials and diluted in a volume of 1.25% (v/v) Agri-Dex® crop oil concentrate to obtain 12× stock solutions. […] Application solutions were prepared by adding an appropriate amount of each stock solution (e.g., 1 mL) and diluted to the appropriate final concentrations with the addition of 9 mL of an aqueous mixture of 1.25% (v/v) crop oil concentrate so that the final spray solutions contained 1.25% (v/v) crop oil concentrate.
As required, additional water and/or 97:3 v/v acetone/DMSO was added to individual application solutions so that the final acetone and DMSO concentrations of the application solutions being compared were 8.1% and 0.25%, respectively.
All stock solutions and applications solutions were visually inspected for compound compatibility prior to application. Spray solutions were applied to the plant material with an overhead Mandel track sprayer equipped with a 8002E nozzles calibrated to deliver 187 L/ha over an application area of 0.503 m^2 at a spray height of 18 inches (46 cm) above average plant canopy height. Control plants were sprayed in the same manner with the solvent blank.
The treated plants and control plants were placed in a greenhouse as described above and watered by sub-irrigation to prevent wash-off of the test compounds. After approximately 3 weeks, the condition of the test plants as compared with that of the untreated plants was determined visually and scored on a scale of 0 to 100 percent where 0 corresponds to no injury or growth inhibition and 100 corresponds to complete kill.
as §6
The following equation was used to calculate the expected activity of mixtures containing three active ingredients, A, B, and C: Expected=A+B+C−((A×B+A×C+B×C)/100)+(A×B×C/10000)

As to `CCOC(=O)[C@@H](C)Oc1ccc(Oc2cnc3cc(Cl)ccc3n2)cc1` [Quizalofop-p-ethyl, ethyl(2R)-2-[4-[(6-chloro-2-quinoxalinyl)oxy]phenoxy]propanoate, reference compound], the “Visual Weed Control (%) - 21 DAA ECHOR Obs” value in assay [1] (in-water, 15 gai/ha) stood at 0%; in assay [1] (in-water, 30 gai/ha), 60%. In addition, the “Visual Weed Control (%) - 21 DAA CYPRO Obs” value in assay [2] (15 gai/ha) and in assay [2] (30 gai/ha) was 0% in each case.
Regarding `CCCCOC(=O)[C@@H](C)Oc1ccc(Oc2ccc(C#N)cc2F)cc1` [Cyhalofop-butyl, butyl(2R)-2-[4-(4-cyano-2-fluorophenoxy)phenoxy]propanoate, reference compound], the “Visual Weed Control (%) - 25 DAA ECHOR Obs” value in assay [1] (90 gai/ha, in-water) is 0%; in assay [1] (in-water, 90 gai/ha), 0%. Moreover, the “Visual Weed Control (%)- 22 DAA ECHOR Obs” value in assay [3] (17.5 gai/ha) came to 0%; in assay [3] (35 gai/ha), 15%. Further, the “Visual Weed Control (%) - 22 DAA ECHOR Obs” value in assay [3] (35 gai/ha) is on record as 15%.
In the case of `C[C@@H](Oc1ccc(Oc2nc3ccc(Cl)cc3o2)cc1)C(=O)N(C)c1ccccc1F` [Metamifop, (2R)-2-[4-[(6-chloro-2-benzoxazolyl)oxy]phenoxy]-N-(2-fluorophenyl)-N-methylpropanamide], the “Visual Weed Control (%) - 21 DAA ECHOR Obs” value in assay [1] (in-water, 50 gai/ha) is listed as 20%.
On to `CCC/C(=N\OCC(C)Oc1ccc(Cl)cc1)C1=C(O)CC(C2CCCSC2)CC1=O` (stereo not shown) [Profoxydim, 2-[1-[[2-(4-chlorophenoxy)propoxy]imino]butyl]-3-hydroxy-5-(tetrahydro-2H-thiopyran-3-yl)-2-cyclohexen-1-one, reference compound], for which the “Visual Weed Control (%) - 21 DAA ECHOR Obs” value in assay [1] (in-water, 25 gai/ha) came to 0%. The “Visual Weed Control (%) - 22 DAA ECHOR Obs” value in assay [3] (3.12 gai/ha) is 0%.
In the case of `COc1c(Cl)ccc(-c2nc(C(=O)O)c(Cl)c(N)c2F)c1F` [Compound A Acid, 4-amino-3-chloro-6-(4-chloro-2-fluoro-3-methoxyphenyl)-5-fluoropyridine-2-carboxylic acid], the figures for the “Visual Weed Control (%) - 25 DAA ECHOR Obs” value in assay [1] (8.75 gae/ha in-water), in assay [1] (17.5 gae/ha in-water) and in assay [1] (35 gae/ha in-water) were 0%, 0% and 40%, respectively. Moreover, the “Visual Weed Control (%) - 21 DAA ECHOR Obs” value was 0% in assay [1] (in-water, 8.75 gae/ha); 0% in assay [1] (in-water, 10.6 gae/ha); 15% in assay [1] (in-water, 21.2 gae/ha); 15% and 30% in assay [1] (in-water, 35 gae/ha); 15% in assay [1] (in-water, 42.4 gae/ha); 10% in assay [1] (in-water, Compound A Acid 8.75 gae/ha). For the same molecule, the “Visual Weed Control (%) - 21 DAA ECHOR Obs” value in assay [1] (in-water, Compound A Acid 17.5 gae/ha) was 15%; in assay [1] (in-water, Compound A Acid 35 gae/ha), 20%. Further, the “Visual Weed Control (%) - 21 DAA CYPRO Obs” value is listed as 0% in assay [2] (8.75 gae/ha), 0% in assay [2] (Compound A Acid 8.75 gae/ha), 30% in assay [2] (Compound A Acid 17.5 gae/ha) and 85% in assay [2] (Compound A Acid 35 gae/ha).
`COc1c(Cl)ccc(-c2nc(C(=O)OCc3ccccc3)c(Cl)c(N)c2F)c1F` [Compound A Benzyl Ester, benzyl ester of 4-amino-3-chloro-5-fluoro-6-(4-chloro-2-fluoro-3-methoxy-phenyl)pyridine-2-carboxylic acid]: the “Visual Weed Control (%) - 21 DAA ECHOR Obs” value is 0% in assay [1] (in-water, 4.38 gae/ha); 10% and 8% in assay [1] (in-water, 8 gae/ha); 10% and 15% in assay [1] (in-water, 8.75 gae/ha); 78% in assay [1] (in-water, 48 gae/ha); 80% in assay [1] (in-water, 96 gae/ha). The “Visual Weed Control (%) - 25 DAA ECHOR Obs” value is 85% in assay [1] (in-water, 8.75 gae/ha); 90% in assay [1] (in-water, 17.5 gae/ha); 100% in assay [1] (in-water, 35 gae/ha). For the same molecule, the “Visual Weed Control (%) - 20 DAA CYPRO Obs” value in assay [2] (4.38 gae/ha) was found to be 50%; in assay [2] (8.75 gae/ha), 100%; in assay [2] (17.5 gae/ha), 100%. In addition, the “Visual Weed Control (%) - 21 DAA CYPRO Obs” value in assay [2] (4.38 gae/ha) was found to be 20%. Also, the “Visual Weed Control (%) - 22 DAA ECHOR Obs” value in assay [3] (8 gae/ha) was 13% and 25%; in assay [3] (16 gae/ha), 35%. The “Visual Weed Control (%)- 22 DAA ECHOR Obs” value came to 13% in assay [3] (8 gae/ha) and 40% in assay [3] (16 gae/ha).
